Laboratory results: patent publication US4563479A, “Synergistic radiation protective pharmaceutical compositions” (Chinoin Gyogyszer es Vegyeszeti Termekek Gyar RT, priority 1979, dated 1986)
Counter-ions that a name gives are not always drawn. Like-named read-outs stand apart in the source and are kept apart here.

Legend:
mice = assay: Survival and survival coefficient "S" of irradiated mice (X-ray or 60Co gamma), Tables 2-4; assay type: in vivo; conditions: 140 mg/kg AET alone i.p.
Description: Experiments are carried out in mice. Irradiation was carried out with X-ray (rtg) and with gamma rays obtained from ^60 Co isotope. Survival was observed on the 30th day after irradiation and expressed by using survival coefficient "S" according to Kaluszyner. […] Mice were treated intraperitoneally.

[1] = cited from earlier work
[2] = cited from earlier work; remark: listed apart in the source

N=C(N)SCCN [AET, aminoethyl-isothiuronium-chloride-hydrochloride]
Survival % (mice; X-ray (rtg) 630 R): 15%
Survival coefficient "S" (mice; X-ray (rtg) 630 R): 0.39
Survival % (mice; X-ray (rtg) 800 R): 0%
Survival coefficient "S" (mice; X-ray (rtg) 800 R): 0.27
Survival % (mice; gamma 900 rad): 5%
Survival coefficient "S" (mice; gamma 900 rad): 0.37
Survival % (mice; gamma 1100 rad): 0%
Survival coefficient "S" (mice; gamma 1100 rad): 0.28
LD50 p.o. ([1]; listed as aminoethyl-isothiuronium-chloride-hydrochloride): 710 mg/kg

N=C(N)SCCN [aminoethyl-isothiuronium-bromide-hydrobromide]
LD50 p.o. [1]: 1200 mg/kg

Cl.N[C@@H](CS)C(=O)O [cysteine-hydrochloride]
Radiation protective dose ([2]; in vivo): 1900 mg/kg

N=C(N)NCCS [mercaptoethyl-guanidine]
Therapeutic index ([2]; LD50 p.o. / radiation protective dose): 1.75
LD50 p.o. [1]: 350 mg/kg
